According to the NIST ThermoML archive (doi:10.1021/je800110r):
Numbers after ± are expanded uncertainties.

Conditions: 293.15 K, Liquid, Vibrating tube method

CCCCCCCCCC [decane]
Conditions	mass density [kg/m3]
17005 kPa	742.2 ± 2
17022 kPa	742.3 ± 2
17041 kPa	742.3 ± 2
17058 kPa	742.3 ± 2
17074 kPa	742.3 ± 2
17089 kPa	742.1 ± 2
17103 kPa	742.4 ± 2
17122 kPa	742.2 ± 2
17142 kPa	742.2 ± 2
17156 kPa	742.3 ± 2
17176 kPa	742.3 ± 2
17193 kPa	742.3 ± 2
17207 kPa	742.3 ± 2
17227 kPa	742.3 ± 2
17240 kPa	742.3 ± 2
17257 kPa	742.4 ± 2
17274 kPa	742.5 ± 2
17296 kPa	742.3 ± 2
17313 kPa	742.4 ± 2
17338 kPa	742.4 ± 2
17352 kPa	742.4 ± 2
17370 kPa	742.4 ± 2
17390 kPa	742.4 ± 2
17410 kPa	742.4 ± 2
17425 kPa	742.4 ± 2
17440 kPa	742.5 ± 2
17453 kPa	742.5 ± 2
17471 kPa	742.5 ± 2
17486 kPa	742.5 ± 2
17508 kPa	742.5 ± 2
17521 kPa	742.6 ± 2
17538 kPa	742.6 ± 2
17558 kPa	742.6 ± 2
17571 kPa	742.6 ± 2
17589 kPa	742.5 ± 2
17610 kPa	742.6 ± 2
17627 kPa	742.7 ± 2
17648 kPa	742.6 ± 2
17663 kPa	742.6 ± 2
17679 kPa	742.6 ± 2
17699 kPa	742.6 ± 2
17715 kPa	742.7 ± 2
17736 kPa	742.7 ± 2
17752 kPa	742.7 ± 2
17772 kPa	742.8 ± 2
17787 kPa	742.6 ± 2
17806 kPa	742.7 ± 2
17828 kPa	742.8 ± 2
17849 kPa	742.7 ± 2
17868 kPa	742.8 ± 2
17883 kPa	742.8 ± 2
17899 kPa	742.8 ± 2
17913 kPa	742.8 ± 2
17931 kPa	742.9 ± 2
17955 kPa	743 ± 2
17969 kPa	742.9 ± 2
17985 kPa	743 ± 2
18004 kPa	742.9 ± 2
18017 kPa	742.9 ± 2
18036 kPa	742.9 ± 2
18058 kPa	743 ± 2
18072 kPa	743 ± 2
18088 kPa	743 ± 2
18102 kPa	742.9 ± 2
18118 kPa	742.9 ± 2
18140 kPa	743 ± 2
18162 kPa	742.9 ± 2
18178 kPa	743.2 ± 2
18195 kPa	743 ± 2
18214 kPa	743 ± 2
18233 kPa	743 ± 2
18256 kPa	742.9 ± 2
18273 kPa	743.2 ± 2
18295 kPa	743 ± 2
18317 kPa	743 ± 2
18342 kPa	743.1 ± 2
18359 kPa	743.1 ± 2
18381 kPa	743.1 ± 2
18400 kPa	743.1 ± 2
18418 kPa	743.2 ± 2
18434 kPa	743.1 ± 2
18457 kPa	743.3 ± 2
18474 kPa	743.3 ± 2
18500 kPa	743.2 ± 2
18520 kPa	743.3 ± 2
18538 kPa	743.2 ± 2
18560 kPa	743.3 ± 2
18581 kPa	743.3 ± 2
18599 kPa	743.3 ± 2
18622 kPa	743.3 ± 2
18645 kPa	743.4 ± 2
18663 kPa	743.4 ± 2
18686 kPa	743.3 ± 2
18701 kPa	743.3 ± 2
18728 kPa	743.3 ± 2
18745 kPa	743.3 ± 2
18766 kPa	743.4 ± 2
18793 kPa	743.4 ± 2
18811 kPa	743.5 ± 2
18832 kPa	743.4 ± 2
18849 kPa	743.4 ± 2
18871 kPa	743.5 ± 2
18888 kPa	743.5 ± 2
18912 kPa	743.5 ± 2
18936 kPa	743.6 ± 2
18955 kPa	743.5 ± 2
18976 kPa	743.6 ± 2
19001 kPa	743.6 ± 2
19019 kPa	743.6 ± 2
19043 kPa	743.6 ± 2
19062 kPa	743.5 ± 2
19077 kPa	743.5 ± 2
19096 kPa	743.7 ± 2
19115 kPa	743.7 ± 2
19134 kPa	743.7 ± 2
19153 kPa	743.7 ± 2
19172 kPa	743.6 ± 2
19191 kPa	743.6 ± 2
19259 kPa	743.8 ± 2
19307 kPa	743.7 ± 2
19325 kPa	743.7 ± 2
19340 kPa	743.7 ± 2
19353 kPa	743.9 ± 2
19374 kPa	743.8 ± 2
19395 kPa	743.9 ± 2
19408 kPa	743.8 ± 2
19424 kPa	743.9 ± 2
19451 kPa	743.9 ± 2
19464 kPa	743.9 ± 2
19480 kPa	743.8 ± 2
19495 kPa	743.8 ± 2
19511 kPa	743.8 ± 2
19524 kPa	743.8 ± 2
19536 kPa	743.9 ± 2
19556 kPa	743.9 ± 2
19575 kPa	744 ± 2
19589 kPa	743.9 ± 2
